The test system of data set [1] is Green Peach Aphid (Myzus persicae). The following applies: in vivo. The text has this: II.2 Activity Against Green Peach Aphid (Myzus persicae)
The active compounds were formulated in 50:50 acetone:water and 100 ppm Kinetic™ surfactant.
Pepper plants in the 2nd leaf-pair stage (variety California Wonder) were infested with approximately 40 laboratory-reared aphids by placing infested leaf sections on top of the test plants. The leaf sections were removed after 24 hr. The leaves of the intact plants were dipped into gradient solutions of the test compound and allowed to dry. Test plants were maintained under fluorescent light (24 hour photoperiod) at about 25° C. and 20-40% relative humidity. Aphid mortality on the treated plants, relative to mortality on check plants, was determined after 5 days.

Data set [2] deals with Brown Planthopper (nilaparvata lugens). Put plainly: Activity against brown planthopper (II.7). It counts as in vivo. The settings on record: for mortality [%] at 300 ppm: brown plant hopper (II.7). The procedure: II.7 Activity Against Brown Planthopper (nilaparvata lugens)
The active compounds were formulated as a 20:80 acetone:water solution. Surfactant (Alkamuls EL 620) was added at the rate of 0.1% (vol/vol).
Potted rice plants of 3-4 weeks of age are sprayed with 10 ml of the test solution using air driven hand atomizer (Devillbis atomizer) at 1.7 bar. The treated plants are allowed to dry for about 1 hour and covered with Mylar cages. The plants are inoculated with 10 adults of the specie (5 male and 5 females) and kept at 25-27° C. and 50-60% humidity for 3 days. Mortality is assed after 24, 48 and 72 hours after treatment. Dead insects are usually found in the water surface. Each treatment is replicated once.

Data set [3] concerns Diamond Back Moth (plutella xylostella). The following applies: in vivo. The method, then:
II.5 Activity Against Diamond Back Moth (plutella xylostella)
The active compounds were formulated in 50:50 acetone:water and 0.1% (vol/vol) Alkamuls EL 620 surfactant. A 6 cm leaf disk of cabbage leaves was dipped in the test solution for 3 seconds and allowed to air dry in a Petri plate lined with moist filter paper. The leaf disk was inoculated with 10 third instar larvae and kept at 25-27° C. and 50-60% humidity for 3 days. Mortality was assessed after 72 h of treatment.

For data set [4], the system named is Flea Beetle (Phylotretta striolata). Nature of the data set: Activity against flea beetle (II.19). It counts as in vivo. The following applies: at 300 ppm; after 3 days; leaf disc dip. The procedure: II.19 Activity Against Flea Beetle (Phylotretta striolata)
Flea bettle (Phylotretta striolata) adults used for bioassay are obtained from a colony maintained continuously under laboratory conditions. For testing purposes, the test compound is diluted to a concentration of 300 ppm (wt compound: vol diluent) in a 1:1 mixture of acetone:water, plus 0.1% EL 620 surfactant.
Activity of each compound is evaluated using a […]. Glass petri dishes (60×15 mm) lined with moist filter paper serves as test arenas. All leaf discs are dipped into treatment solution for approximately 3 seconds and allowed to dry for 2 hours. Each treated leaf disc is placed into individual petri dishes and inoculated with 10 adult beetles. Petri dishes are then covered with lids. All test arenas are held under continuous light and a temperature of about 28° C. for duration of the assay. After 3 days, percent mortality is observed.

Data set [5] has as its system Rice Green Leaf Hoppers (Nephotettix virescens). Nature of the data set: Activity against rice green leaf hoppers (II.20). Format: in vivo. The following applies: at 300 ppm; after 72 hours; rice foliar spray. The method, then: II.20 Activity Against Rice Green Leaf Hoppers (Nephotettix virescens)
Leaf hopper adults used for bioassay are obtained from a colony maintained continuously under laboratory conditions. For testing purposes, the test compound is diluted in 300 ppm (wt compound:vol diluent) in a 1:1 mixture of acetone:water, plus 0.1% EL 620 surfactant.
Hopper activity is evaluated using the foliar spray technique. Potted rice plants (2-3 week old, Variety TN-1) are cleaned and dried prior to application. All plants are treated inside the fume hood using DeVilbiss atomizer at 25 psi with a spray volume of 5 ml/plant. To ensure uniform spray distribution, plants were placed in a rotating flat form inside the fume hood. Treated plants are then placed inside the holding room and allowed to dry for 2 hours. Each plant are caged using Mylar cages (4 inches diameter×19 inches in height) and inoculated with 10 adults hoppers. All test plants are held under continuous light and a temperature of about 28° C. for duration of the assay. Percent mortality is observed after 72 hours.

With `O=S(=O)(NCc1ccnc2ccccc12)c1ccc(-c2ccc(OC(F)(F)F)cc2)c(F)c1` [Compound B14], in data set [1], the “mortality [%] at 100 ppm” value is listed as 90% and the “mortality [%] at 300 ppm” value was found to be 90%.

With `O=S(=O)(NCc1ccnc2ccccc12)c1ccc(-c2ccc(C(F)(F)F)cc2)c(C(F)(F)F)c1` [Compound B16], the “mortality in comparison with untreated controls” value in data set [2] (at 300 ppm, rice plants sprayed, up to 72 hours) is on record as “at least 75%”. Moreover, the “mortality [%] at 300 ppm” value in data set [2] came out at 100%.

In the case of `O=S(=O)(NCc1ccnc2ccccc12)c1ccc(-c2ccc(C(F)(F)F)cc2)c(Cl)c1` [Compound B24], in data set [1], the “mortality [%] at 10 ppm” value was found to be 90%, the “mortality [%] at 100 ppm” value stood at 90% and the “mortality [%] at 300 ppm” value is 100%. Also, the “mortality [%] at 300 ppm” value in data set [3] came to 100%.

Turning to `O=S(=O)(NCc1ccnc2ccccc12)c1ccc(-c2ccc(C(F)(F)F)cc2Cl)cc1F` [Compound B85], the “mortality in comparison with untreated controls” value in data set [4] and in data set [5] was “at least 75%” each time.

As for `O=S(=O)(NCc1ccnc2ccccc12)c1ccc(-c2ccc(OC(F)(F)F)cc2)cc1` [Compound C1, reference compound], in data set [1], the “mortality [%] at 100 ppm” value is on record as 0% and the “mortality [%] at 300 ppm” value was 60%.

Take `O=S(=O)(NCc1ccnc2ccccc12)c1ccc(-c2ccc(C(F)(F)F)cc2)cc1` [Compound C2, reference compound]: in data set [1], the “mortality [%] at 10 ppm” value was determined as 0%, the “mortality [%] at 100 ppm” value is listed as 60% and the “mortality [%] at 300 ppm” value was 100%. Besides, in data set [3], the “mortality [%] at 300 ppm” value is 0%. For the same compound, the “mortality [%] at 300 ppm” value in data set [2] stood at 0%.

These data come from patent US20090280982A1, “Quinolinylmethyl Compounds” (BASF SE, priority 2006, published 2009).
